Where two headings read alike, the source gives them in different places.
Legend:
[1] = test system: Drosophila melanogaster; assay: Antigenotoxicity, Drosophila wing spot test (SMART), combined with H2O2; conditions: combined treatment with […] H2O2, mwh/flr3, 0.51 mM
Description: (§2) Genotoxicity assays were carried out following the wing spot test standard procedure [20]. Briefly, transheterozygous larvae for mwh and flr ^3 genes were obtained by crossing four-day-old virgin flr ^3 females with mwh males in a 2 : 1 ratio. Four days after fertilization, females were allowed to lay eggs in fresh yeast medium (25 g yeast and 4 mL sterile distilled water) for 8 h in order to obtain synchronised larvae. After 72 h, larvae were collected, washed with distilled water, and clustered in groups of 100 individuals. […] Adult flies were collected and stored in 70% ethanol until the wings were removed and mounted on slides using Faure's solution. Mutant spots were assessed in both dorsal and ventral surfaces of the wings in a bright light microscope at 400x magnification. The frequencies of each type of mutant clone per wing (single, large, or twin spot) were compared to the concurrent negative control and analysed applying the binomial Kastenbaum and Bowman Test [36]. Antigenotoxicity tests were performed following the method described by Anter et al. [37]. […] Single and twin spots per wing were also recorded and compared with the concurrent positive control as described before. The recombination percentage was calculated following Valadares et al. [38] procedure and the inhibition percentages (IP) for the combined treatments were calculated from the control-corrected frequencies of clone formation per 10^5 cells, according to Abraham [39]: IP = [(genotoxin alone − combined treatment)/genotoxin alone] × 100.

[2] = Cytotoxicity assay (trypan blue exclusion); format: cell-based, human; conditions: human, HL-60 cells; HL-60, 72 h; read-out: IC50 (cytotoxicity), not reached at highest tested concentration
Description: (§1) Promyelocytic human leukaemia (HL-60) cells were grown in RPMI-1640 medium (Sigma, R5886) supplemented with heat-inactivated foetal bovine serum (Linus, S01805), L-glutamine 200 mM (Sigma, G7513), and 1x antibiotic-antimycotic solution (Sigma, A5955). Cells were incubated at 37°C in a humidified atmosphere of 5% CO2. Cultures were plated at 2.5 × 10^4 cells/mL density in 10 mL culture bottles and passed every 2 days. The effect of the assayed compounds on cell viability was determined by the trypan blue exclusion test according to our standard procedures. […] After culture, cells were stained with a 1 : 1 volume ratio of trypan blue dye (Sigma, T8154) and counted in a Neubauer chamber at 100x magnification. The survival percentage of each treatment compared with the control was recorded in three independent replicates.

[3] = test system: HL-60 cells; assay: Cytotoxicity assay (trypan blue exclusion); format: cell-based, human; conditions: Homo sapiens; HL-60, highest tested concentration 20.4 mM; read-out: Inhibition of cell growth
Description: as §1

[4] = test system: LINE-1; assay: Methylation status of HL-60 cells (qMSP); format: cell-based, human; conditions: HL-60, 5 h, 0.51 mM
Description: Then, DNA was extracted similarly to previously described DNA fragmentation assay. After that, the DNA was converted with bisulphite (EZ DNA Methylation-Gold™ Kit). Bisulphite-modified DNA was used for fluorescence-based real-time quantitative Methylation-Specific PCR (qMSP) using 5 μM of each forward and reverse primer (Isogen Life Science BV), 2 μL of iTaq™ Universal SYBR® Green Supermix (Bio-Rad, it contains antibody-mediated hot-start iTaq DNA polymerase, dNTPs, MgCl2, SYBR Green I Dye, enhancers, stabilizers, and a blend of passive reference dyes including ROX and fluorescein) and 25 ng of bisulphite converted genomic DNA. PCR conditions included initial denaturalisation at 95°C for 3 minutes and amplification which consisted of 45 cycles at 95°C for 10 seconds, 60°C for 15 seconds, and 72°C for 15 seconds, taking picture at the end of each elongation cycle. After that, melting curve was determined increasing 0.5°C each […] from 60°C to 95°C and taking pictures. QMSP was carried out in 48-well plates in MiniOpticon Real-Time PCR System (MJ Mini Personal Thermal Cycler, Bio-Rad) and were analysed by Bio-Rad CFX Manager 3.1 software. […] Alu-C4 and the target repetitive elements Alu M1, LINE-1, and Sat-α were obtained from Isogen Life Science and their sequences are shown in Table 1. Each sample was analysed in triplicate. The results of each CT were obtained from each qMSP. […]

[5] = test system: Drosophila melanogaster; assay: Chronic treatments: lifespan and healthspan assays; format: in vivo; conditions: for Healthspan difference (%) / Mean lifespan difference (%): versus concurrent water control
Description: We also tested the same compounds and concentrations as in the toxicity/antitoxicity experiments. Lifespan assays were carried out at 25°C according to the procedure described by Fernandez-Bedmar et al.. Briefly, synchronised 72 ± 12-hour-old transheterozygous larvae were washed in distilled water, collected, and transferred in groups of 100 individuals into test vials containing 0.85 g Drosophila Instant Medium and 4 mL of the different concentrations of the compounds to be assayed. Emerged adults from pupae were collected under CO2 anaesthesia and placed in groups of 25 individuals of the same sex into sterile vials containing 0.21 g Drosophila Instant Medium and 1 mL of different concentrations of the compounds to be tested. Flies were chronically treated during all their life. The number of survivors was determined twice a week.

[6] = test system: D. melanogaster larvae; assay: Antitoxicity assay (combined treatment with […] H2O2)
Description: (§3) Negative (H2O) and positive (0.15 M H2O2) toxicant concurrent controls were also assayed. Test groups consisted of larvae fed with Drosophila Instant Medium (Formula 4–24, Carolina Biological Supply, Burlington, NC) supplemented with the beverage concentrations tested. Emerging adults of all groups were counted and toxicity was determined as the percentage of hatched individuals in each treatment compared with the negative control. Antitoxicity was assessed using the same procedure and experimental concentrations as in toxicity assays, but in combined treatments with 0.15 M H2O2 and comparing the percentage of emerging adults with the positive toxicant control [34]. […] Negative control values were considered as those expected in Chi-square formula used in toxicity assay and positive control values in antitoxicity assays [35]. The same concentrations of toxicity and antitoxicity assays within the same substance were also compared.

[7] = test system: HL-60; design: method as in PMID 1311329; conditions: at 5 mM; cited from earlier work
[8] = test system: human breast cancer cells; design: method as in PMID 25691730; conditions: cited from earlier work
[9] = test system: D. melanogaster larvae
Description: as §3

[10] = test system: HL-60 cells; assay: DNA fragmentation status (internucleosomal ladder); format: cell-based, human; conditions: HL-60, 5 h, any CAF treatment
Description: The ability of our compounds to induce DNA fragmentation was determined as described by Anter et al.. […] After treatment, genomic DNA was extracted using a commercial kit (Blood Genomic DNA Extraction Mini Spin Kit, […] Biotech, Cordoba, Spain). Subsequently, DNA was incubated overnight with RNase at 37°C and quantified in a spectrophotometer (Nanodrop® ND-1000). Finally, 1200 ng DNA was electrophoresed in a 2% agarose gel for 120 min at 50 V, stained with ethidium bromide, and visualised under UV light. The apoptosis process is recognised by the appearance of internucleosomal DNA fragments that are multiple of 200 base pairs.

[11] = test system: Drosophila melanogaster; assay: Genotoxicity, Drosophila wing spot test (SMART); conditions: […] H2O2 alone
Description: as §2

[12] = mwh/TM3 balancers-heterozygous wings

## Cn1c(=O)c2c(ncn2C)n(C)c1=O [CAF, 1,3,7-trimethylpurine-2,6-dione]
[1]
  Clones per wings: large simple spots (>2 cells) m = 5: 0.125 (10) clones/wing
  Clones per wings: small single spots (1-2 cells) m = 2: 0.325 (26) clones/wing
  Clones per wings: total spots m = 2: 0.45 clones/wing
  Clones per wings: twin spots m = 5: 0 clones/wing
  Frequency of clone formation per 10^5 cells, control corrected: 0.766 per 10^5 cells
  Frequency of clone formation per 10^5 cells, observed: 1.844 per 10^5 cells
[2]
  IC50 at 72 h: > 20.4 mM
[3]
  inhibition at 20400 µM: ~40%
[4]
  Methylation status: decrease of methylation status
[5]; 0.004 mM, mean ± SE
  Healthspan (80th percentile) (days): 47 ± 2.65^∗∗ days
  Mean lifespan: 62.88 ± 1.7 days
[5]; 0.004 mM
  Healthspan difference (%): 55.73%
  Mean lifespan difference (%): 6.87%
[5]; 0.032 mM, mean ± SE
  Mean lifespan (days): 68.86 ± 2.38^∗∗ days
[5]; 0.032 mM
  Healthspan difference (%): 40.32%
  Mean lifespan difference (%): 17.02%
[5]; 0.127 mM, mean ± SE
  Mean lifespan (days): 70.91 ± 2.99^∗∗∗ days
[5]; 0.127 mM
  Healthspan difference (%): 22.23%
  Mean lifespan difference (%): 20.52%
[5]; 0.51 mM, mean ± SE
  Mean lifespan: 61.14 ± 2.07 days
[5]; 0.51 mM
  Healthspan difference (%): 26.41%
  Mean lifespan difference (%): 3.91%
[5]; on average
  Drosophila lifespan increase, on average: more than 15%
[6]; 0.004 mM + […] hydrogen peroxide
  Survival (%) combined treatment: 54^Δ %
[6]; 0.032 mM + […] hydrogen peroxide
  Survival (%) combined treatment: 51^Δ %
[6]; 0.127 mM + […] hydrogen peroxide
  Survival (%) combined treatment: 54.66^Δ %
[6]; 0.51 mM + […] hydrogen peroxide
  Survival (%) combined treatment: 51.33^Δ %
[7]
  Growth inhibition (in words): inhibited HL-60 growth
[8]
  IC50: ~5 mM
[9]; 0.004 mM
  Survival (%) simple treatment: 100%
[9]; 0.032 mM
  Survival (%) simple treatment: 100%
[9]; 0.127 mM
  Survival (%) simple treatment: 100%
[9]; 0.51 mM
  Survival (%) simple treatment: 100%
[10]
  Ladder pattern of fragmented internucleosomal DNA: not observed

## OO [H2O2, hydrogen peroxide]
[6]; […] H2O2 alone
  Survival (%) positive toxicant control: 46.66%
[11]; [12]
  Clones per wings: large simple spots (>2 cells) m = 5: 0.013 (1) clones/wing
  Clones per wings: small single spots (1-2 cells) m = 2: 0.188 (15) clones/wing
[11]; mwh/TM3 wings
  Frequency of clone formation per 10^5 cells, observed: 0.819 per 10^5 cells
[11]; mwh/flr3 wings
  Clones per wings: large simple spots (>2 cells) m = 5: 0.088 (7) clones/wing
  Clones per wings: small single spots (1-2 cells) m = 2: 0.313 (25) clones/wing
  Clones per wings: total spots m = 2: 0.438 clones/wing
  Clones per wings: twin spots m = 5: 0.038 (3) clones/wing
  Frequency of clone formation per 10^5 cells, control corrected: 0.717 per 10^5 cells
  Frequency of clone formation per 10^5 cells, observed: 1.795 per 10^5 cells
[11]; mwh/flr3 wings, versus negative control
  Statistical diagnosis of total spots: +
